From PubChem BioAssay (NCI)
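Five compound concentrations were applied to cells in 96-well plates for 48 hours; endpoints were derived by simple linear interpolation of the resulting dose-response curve. Abbreviation: GI50, concentration required for 50% inhibition of growth. TGI marks complete inhibition of growth.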

Tests used:
Test in all cases: inhibition of tumour cell growth, NCI panel, 48 h
[1] = test system: KM12 colon
[2] = test system: UO-31 renal
[3] = test system: U251 CNS
[4] = test system: LOX IMVI melanoma
[5] = test system: NCI-H226 lung
[6] = test system: MDA-MB-435
[7] = test system: OVCAR-4 ovarian
[8] = test system: NCI-H23 lung
[9] = test system: HCT-15 colon
[10] = test system: SW-620 colon
[11] = test system: IGROV1 ovarian
[12] = test system: SK-OV-3 ovarian
[13] = test system: UACC-257 melanoma
[14] = test system: UACC-62 melanoma
[15] = test system: RPMI-8226 leukemia
[16] = test system: A549 NSCLC
[17] = test system: PC-3 prostate
[18] = test system: K-562 leukemia
[19] = test system: NCI-H460 lung
[20] = test system: NCI/ADR-RES ovarian
[21] = test system: COLO 205 colon
[22] = test system: SK-MEL-2 melanoma
[23] = test system: HCC-2998 colon
[24] = test system: OVCAR-8 ovarian
[25] = test system: HS 578T breast
[26] = test system: CCRF-CEM leukemia
[27] = test system: HT29 colon
[28] = test system: BT-549 breast
[29] = test system: MDA-MB-231 breast

O=c1cc(NCC(O)CN2CCCC2)n(Cc2ccccc2)c(=O)n1Cc1ccccc1 (configuration not stated)
GI50 [1]: 18.5 µM | TGI [1]: 36.5 µM | GI50 [2]: 45.8 µM | TGI [2]: > 100 µM | GI50 [3]: 43.6 µM | TGI [3]: > 100 µM | GI50 [4]: 18.5 µM | TGI [4]: 38.7 µM | GI50 [5]: > 100 µM | TGI [5]: > 100 µM | GI50 [6]: 26.7 µM | TGI [6]: 65.8 µM | GI50 [7]: 58.3 µM | TGI [7]: > 100 µM | GI50 [8]: 92 µM | TGI [8]: > 100 µM | GI50 [9]: 50.9 µM | TGI [9]: > 100 µM | GI50 [10]: 41.1 µM | TGI [10]: > 100 µM | GI50 [11]: 26.6 µM | TGI [11]: 95.4 µM | GI50 [12]: > 100 µM | TGI [12]: > 100 µM | GI50 [13]: 31.9 µM | TGI [13]: 85.6 µM | GI50 [14]: 20.9 µM | TGI [14]: 47.3 µM | GI50 [15]: 22.6 µM | TGI [15]: 46.5 µM | GI50 [16]: > 100 µM | TGI [16]: > 100 µM | GI50 [17]: 26.9 µM | TGI [17]: 84.1 µM | GI50 [18]: 25.2 µM | TGI [18]: 60.5 µM | GI50 [19]: 39.7 µM | TGI [19]: > 100 µM | GI50 [20]: > 100 µM | TGI [20]: > 100 µM | GI50 [21]: 19.3 µM | TGI [21]: 40.4 µM | GI50 [22]: > 100 µM | TGI [22]: > 100 µM | GI50 [23]: 25.8 µM | TGI [23]: 77.7 µM | GI50 [24]: > 100 µM | TGI [24]: > 100 µM | GI50 [25]: 37 µM | TGI [25]: > 100 µM | GI50 [26]: 28.1 µM | TGI [26]: 80.6 µM | GI50 [27]: 20 µM | TGI [27]: 49 µM | GI50 [28]: 61.6 µM | TGI [28]: > 100 µM | GI50 [29]: 26.3 µM
